For the experiment, the system named is 926638-142-R-J1-PDC complex spheroid viability. The experiment in a line: Anticancer human tumor 926638-142-R-J1-PDC patient-derived endometrial carcinoma cell line growth inhibition [POLQ]. As to conditions: for viability, T/C: stronger effect = lower value. As for the experimental part:
Multicellular complex tumor spheroid response to Polymerase (POL) inhibitors (novobiocin, ART-558, RP6685) in combination with a variety of drugs and investigational agents in selected tumor cell lines
The POL inhibitors (novobiocin, ART-558, and RP6685) were evaluated both individually and in combination with standard of care and investigational anticancer small molecules within a complex spheroid model of solid tumors. . Complex spheroids include a stromal component modeled by human endothelial cells (HUVEC) and fibroblasts modeled by human mesenchymal stem cells (MSCs). The concentration ranges selected for each drug and investigational agent were based upon clinically achievable concentrations if the clinical Cmax of the agent was known.
Compounds. The drugs and investigational agents: novobiocin (NSC847541), ART-558 (NSC835418), RP-6685 (NSC848927), peposertib (NSC802822), ceralasertib (NSC780249), elimusertib (NSC800525), camonsertib (NSC841442), AZD-1390 (NSC803789), olaparib (NSC753686), talazoparib (NSC767125), rucaparib (NSC756644), sotorasib (NSC818433), MRTX-1133 (NSC836407), SN-38 (NSC673596), topotecan (NSC609699), epotoside (NSC141540), doxorubicin (NSC123127), gemcitabine (NSC613327), 5-fluorouracil (NSC19893), paclitaxel (NSC125973), vemurafenib (NSC761431), MSA-2 (NSC828583), SN-011 (NSC837082), adavosertib (NSC754352), prexasertib (NSC758257), carboplatin (NSC241240) and oxaliplatin (NSC266046), were obtained from the National Cancer Institute (NCI) Developmental Therapeutics Program Chemical Repository (21). The FDA-approved anticancer drug set is available from the Developmental Therapeutics Program at https://dtp.cancer.gov/organization/dscb/obtaining/. […] The stock solutions were prepared in dimethyl sulfoxide (DMSO, Sigma-Aldrich, St. Louis, MO, cat. D2650), except for the platinum compounds which were prepared in saline (Quality Biological, Gaithersburg, MD, cat. 114-055-101), at 800-fold the tested concentration and stored at -70 degrees C prior to their use. All drugs and investigational agents were tested over a range starting from a high concentration at or near the clinical Cmax and decreasing in half-log increments. If the clinical Cmax for an agent had not been determined, the highest concentration tested was 10 microM, except for SN-38, which was tested at a high concentration of 1 microM.
Cell Culture. All cells were maintained in an incubator at 37 degrees C and 5% CO2 with 95% humidity. The PDC lines were cultured according to standard operating procedures established by the NCI PDMR (https://pdmr.cancer.gov). Table 3 of the manuscript, lists the cell lines along with the number of the three cell types plated to form the mct-spheroids and media for tumor cell growth. After thawing, all PDC lines, except 997537-175-T-J1-PDC and 415267-285-R-J2-PDC, were cultured in Matrigel-coated flasks prepared with a working solution of 1X Ham's F-12 nutrient mix, without supplementation (Thermo Fisher Scientific, cat. 11765054), 100 U/mL penicillin-streptomycin (Thermo Fisher Scientific, cat. 15140122), and 2.5% Matrigel (Corning Inc., Corning, NY, cat. 354248) for the first three passages. The two PDC lines 997537-175-T-J1-PDC and 415267-285-R-J2-PDC were cultured on uncoated flasks. The 857933-349-R-J2-PDC line was cultured in 6C/Colon 1B media containing advanced DMEM/F-12 (Thermo Fisher Scientific, cat. 12634028), 10 mM HEPES (Thermo Fisher Scientific, cat. 15630080), 1X GlutaMAX supplement (Thermo Fisher Scientific, cat. 35050061), 0.1 mg/mL primocin (InvivoGen, San Diego, CA, cat. ant-pm-2), 10% defined fetal bovine serum, heat inactivated (HyClone Laboratories Inc., Logan, UT, cat. SH30070.03HI), 50% L-WRN conditioned media (ATCC, cat. CRL-3276), 1.25 mM N-Acetyl-L-cysteine (Sigma-Aldrich, cat. A9165), 10 mM nicotinamide (Sigma-Aldrich, cat. N0636), 1X B-27 supplement (Thermo Fisher Scientific, cat. 17504044), 1X N-2 supplement (Thermo Fisher Scientific, cat. […]

The mark [1] stands for this setting: compound alone, run of 01/08/2024.

Usually viability, T/C stands for the ratio of treated to control. Broadly, the IC50 is the midpoint of a concentration-inhibition curve.

Values joined by “and” are separate entries in the source; they are usually repeats but may differ in a detail not shown here. Identical values can stand only once.
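Also: spheroids exposed to drugs for one week before readout.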
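For viability, T/C in this document: percent viability relative to DMSO vehicle control wells set as 100%.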

With `C#Cc1c(F)ccc2cc(O)cc(-c3ncc4c(N5CC6CCC(C5)N6)nc(OCC56CCCN5CC(F)C6)nc4c3F)c12` (stereo not drawn), the viability, T/C by setting is: (compound 0.0316 µM) 85.1% and 98.5% and 86.6%; (compound 0.1 µM) 88.2% and 90.2% and 93.3%; (compound 0.316 µM) 79.4% and 92.4% and 73.8%; (compound 1 µM) 78.3% and 69.2% and 77.4%; (compound 3.16 µM) 65.5% and 80.2% and 60.2%; (compound 10 µM) 52.5% (2×) and 67.8%. Moreover, the IC50 (curve of compound) is over 10000 nM.

Take `C=CC(=O)N1CCN(c2nc(=O)n(-c3c(C)ccnc3C(C)C)c3nc(-c4c(O)cccc4F)c(F)cc23)C(C)C1` (stereo not drawn): the viability, T/C is, setting by setting: (compound 0.0316 µM) 73.8% and 100% and 104%; (compound 0.1 µM) 88.7% and 83.5% and 89.7%; (compound 0.316 µM) 75.7% and 108% and 103%; (compound 1 µM) 82.7% and 84.2% and 86.3%; (compound 3.16 µM) 72.6% and 88% and 81%; (compound 10 µM) 58.7% and 55% and 55.7%. For the same compound, the half-maximal inhibitory concentration (IC50) (curve of compound) was over 10000 nM.

Regarding `CC(C)n1c(=O)n(C)c2cnc3cc(F)c(-c4ccc(OCCCN5CCCCC5)nc4)cc3c21`, the viability, T/C is 98.1% and 96.9% and 85.4% (compound 0.0316 µM); 99.6% and 92.2% and 101% (compound 0.1 µM); 78.3% and 94.7% and 126% (compound 0.316 µM); 101% and 93.6% and 113% (compound 1 µM); 89.7% and 80.9% and 94.1% (compound 3.16 µM); 51.1% and 73.2% and 92.8% (compound 10 µM). Also, where the note is “curve of compound”, the IC50 was over 10000 nM.

In the case of `CC1COCCN1c1cc(-c2ccnn2C)c2ccnc(-c3ccn[nH]3)c2n1` (stereo not drawn), the viability, T/C by setting is: (compound 0.0316 µM) 83.5% and 103% and 85.4%; (compound 0.1 µM) 79.7% and 81.4% and 63.6%; (compound 0.316 µM) 55.4% and 57.6% and 51.2%; (compound 1 µM) 31.7% and 36.2% and 33%; (compound 3.16 µM) 13.4% and 11.8% and 14.9%; (compound 10 µM) 6.95% and 8.69% and 9.29%. Besides, the IC50 (curve of compound) is 435 nM and 450 nM and 287 nM.

`CC1COCCN1c1cc(C2(O)CC3CCC(C2)O3)c2cnn(-c3ccn[nH]3)c2n1` (stereo not drawn): the viability, T/C runs as follows: (compound 0.0316 µM) 91.2% and 96.2% and 105%; (compound 0.1 µM) 64.1% and 73.2% and 58.2%; (compound 0.316 µM) 37% and 33.6% and 36.9%; (compound 1 µM) 12.2% and 13.1% and 15.8%; (compound 3.16 µM) 6.85% and 6.69% and 9.86%; (compound 10 µM) 2.36% and 3.68% and 4.18%. Besides, the IC50 (curve of compound) was 178 nM and 198 nM and 156 nM.

On to `CC1COCCN1c1cc(C2(S(C)(=N)=O)CC2)nc(-c2ccnc3[nH]ccc23)n1` (stereo not drawn), for which the viability, T/C is, setting by setting: (compound 0.0316 µM) 103% and 96.2% and 125%; (compound 0.1 µM) 100% and 97.9% and 87.2%; (compound 0.316 µM) 94.2% and 87.3% and 90%; (compound 1 µM) 88.5% and 93.7% and 95%; (compound 3.16 µM) 64.7% and 71.3% and 62.5%; (compound 10 µM) 32.1% and 35.3% and 33.8%. Under “curve of compound”, the IC50 is 5380 nM and 6230 nM and 5460 nM.

In the case of `CCCS(=O)(=O)Nc1ccc(F)c(C(=O)c2c[nH]c3ncc(-c4ccc(Cl)cc4)cc23)c1F`, the viability, T/C reads like this: (compound 0.0316 µM) 104% and 88.4% and 90.9%; (compound 0.1 µM) 107% and 99.6% and 92.5%; (compound 0.316 µM) 96.6% and 97% and 86%; (compound 1 µM) 98.3% and 106% and 94.4%; (compound 3.16 µM) 88.2% and 76.9% and 82%; (compound 10 µM) 50.4% and 47.4% and 51.5%. The IC50 (curve of compound) was > 10000 nM and 9030 nM.

Turning to `CCc1cc2c(N3CCc4c(cc(Cn5ccnc5)cc4-c4cn(C)nc4C(F)(F)F)C3=O)cc(C)nc2c(OC)n1`, the viability, T/C is 76.6% and 76.9% and 72.4% (compound 0.0316 µM); 62.2% and 66.4% and 61.3% (compound 0.1 µM); 52.8% and 62% and 51.8% (compound 0.316 µM); 42% and 51.2% and 48.4% (compound 1 µM); 26.5% and 38% and 43% (compound 3.16 µM); 23.4% and 35.1% and 33.4% (compound 10 µM). For the same compound, the IC50 (curve of compound) was 373 nM and 987 nM and 595 nM.

As for `CCc1cc2c(N3CCc4c(cc(Cn5ccnc5)cc4-c4cn(C)nc4C(F)(F)F)C3=O)ccnc2c(OC)n1`, the viability, T/C (compound 0.0316 µM) was 60.9% and 84.9% and 79%; the viability, T/C (compound 0.1 µM) is 79.4% and 67.7% and 61%; the viability, T/C (compound 0.316 µM) was 48% and 59.9% and 64.8%; the viability, T/C (compound 1 µM) was 43.1% and 45% and 49.4%; the viability, T/C (compound 3.16 µM) is 25.4% and 39.3% and 37.3%; the viability, T/C (compound 10 µM) is 27.3% and 29.5% and 28.1%. Also, the IC50 (curve of compound) was 456 nM and 714 nM and 921 nM.

As to `CNCc1ccc(-c2[nH]c3cc(F)cc4c3c2CCNC4=O)cc1`, the viability, T/C is 93.7% and 109% and 101% (compound 0.0316 µM); 89.6% and 97.2% and 79.2% (compound 0.1 µM); 92.8% (2×) and 87.7% (compound 0.316 µM); 77.7% and 97.3% and 82.6% (compound 1 µM); 86.7% and 87.1% and 95.7% (compound 3.16 µM); 78% and 80.2% and 84.1% (compound 10 µM). Also, the half-maximal inhibitory concentration (IC50) (curve of compound) was over 10000 nM.

Turning to `COC1C(OC(N)=O)C(O)C(Oc2ccc3c(O)c(NC(=O)c4ccc(O)c(CC=C(C)C)c4)c(=O)oc3c2C)OC1(C)C` (stereo not drawn), the viability, T/C is 101% [middle of 13 runs] (compound 0.316 µM) and 98.8% [middle of 13 runs] (compound 10 µM). For the same compound, the IC50 under setting [1] is over 10000 nM.

On to `COc1cc2cc(C(=O)CCC(=O)O)sc2cc1OC`, for which the viability, T/C is, setting by setting: (compound 0.0316 µM) 90.1% and 110% and 93.5%; (compound 0.1 µM) 89.8% and 92.9% and 113%; (compound 0.316 µM) 98.2% and 105% and 100%; (compound 1 µM) 101% and 109% and 93.2%; (compound 3.16 µM) 99.7% and 107% and 75.5%; (compound 10 µM) 90.7% and 92.1% and 93.5%. The 50% inhibitory concentration (IC50) (curve of compound) was over 10000 nM.

With `COc1ccc([C@@H](O)c2cc(-c3ncnc4cc(N5CCOCC5)ccc34)c(F)cc2Cl)nn1`, the viability, T/C runs as follows: (compound 0.0316 µM) 89.7% and 92.5% and 103%; (compound 0.1 µM) 89.2% and 79.2% and 80.3%; (compound 0.316 µM) 58.8% and 72.4% and 64.8%; (compound 1 µM) 29.3% and 35.7% and 36.9%; (compound 3.16 µM) 13.2% and 18.7% and 16.1%; (compound 10 µM) 8.76% and 11.7% and 5.8%. The IC50 (curve of compound) is 466 nM and 635 nM and 606 nM.

Consider `Cc1cccc(N(C)C(=O)C2C(O)CCN2c2nc(C)cc(C(F)(F)F)c2C#N)c1` (stereo not drawn), for which the viability, T/C runs as follows: (compound 0.1 µM) 92.5% [middle of 13 runs]; (compound 0.316 µM) 94.9% [middle of 13 runs]. Also, the concentration for half-maximal inhibition (IC50) is over 10000 nM under setting [1] and over 10000 nM (compound alone, run of 01/19/2024).

In the case of `O=C(Nc1ccc(O)c(NS(=O)(=O)c2ccc(F)cc2)c1)c1ccc(-c2ccccc2)cc1`, the viability, T/C reads like this: (compound 0.0316 µM) 102% and 99.8% and 82.6%; (compound 0.1 µM) 96.1% and 93.2% and 102%; (compound 0.316 µM) 94.9% and 98.2% and 96%; (compound 1 µM) 100% and 98.5% and 103%; (compound 3.16 µM) 78.1% and 104% and 105%; (compound 10 µM) 59.8% and 65.5% and 79.2%. Moreover, the IC50 (curve of compound) was over 10000 nM.

Values taken from PubChem BioAssay AID1963826 (Molecular Pharmacology Branch, DTP, NCI, 2024).
